Biological target: T1, KRAS G12C 1-169, his-tagged protein, GDP-loaded (Homo sapiens, UniProt P01116, G12C)
T1 construct: KRAS G12C 1-169, his-tagged protein, GDP-loaded
Test: Biochemical assay: covalent binding of compounds to KRAS G12C, analysed by mass spectrometry
Details: binding measured at 30 min (compounds 247-375)
Description: Compounds were tested for activity as follows:
Compounds were diluted to 50× final test concentration in DMSO in 96-well storage plates. […] Reactions were mixed carefully and thoroughly by pipetting up/down with a 200 μl multi-channel pipettor. The plate was sealed well with aluminum plate seal, and stored in drawer at room temperature for 30 min, 2 hour or 24 hrs. 51 μl of 2% formic acid (Fisher cat # A117) in DI H2O was then added to each well followed by mixing with a pipette. The plate was then resealed with aluminum seal and stored on dry ice until analyzed as described below.
The above described assays were analyzed by mass spectrometry according to the following procedure:
The MS instrument is set to positive polarity, 2 GHz resolution, and low mass (1700) mode and allowed to equilibrate for 30 minutes. The instrument is then calibrated, switched to acquisition mode and the appropriate method loaded.
After another 30 minute equilibration time, a blank batch (i.e., buffer) is run to ensure equipment is operating properly. The samples are thawed at 37° C. for 10 minutes, briefly centrifuged, and transfer to the bench top. Wells A1 and H12 are spiked with 1 uL 500 uM internal standard peptide, and the plates centrifuged at 2000×g for 5 minutes. The method is then run and masses of each individual well recorded.
The masses (for which integration data is desired) for each well are pasted into the platemap and exported from the analysis. Masses for the internal standards are exported as well. The data at 50 ppm is extracted for the +19 charge state, and identity of well A1 is assigned using the internal standard spike and integrated. Peak data is exported as a TOF list and the above steps are repeated individually, for the +20, 21, 22, 23, 24, and 25 charge states.

T1 sequence (P01116 1-169 isoform P01116-2 G12C): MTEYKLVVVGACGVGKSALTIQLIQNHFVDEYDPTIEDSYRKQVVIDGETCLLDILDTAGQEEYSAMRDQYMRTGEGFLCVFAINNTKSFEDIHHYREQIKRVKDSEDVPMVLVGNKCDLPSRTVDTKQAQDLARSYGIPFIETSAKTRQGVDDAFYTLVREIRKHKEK

SMILES	Binding %
C=CC(=O)N1CCN(c2nc(CN(C)C)nc3c(F)c(-c4c(C)ccc5[nH]ncc45)c(Cl)cc23)CC1 [Compound 254, 1-(4-(6-chloro-2-((dimethylamino)methyl)-8-fluoro-7-(5-methyl-1H-indazol-4-yl)quinazolin-4-yl)piperazin-1-yl)prop-2-en-1-one]	+++ (+++ indicates binding activity greater than 50% and up to 75%)
C=CC(=O)N1CCN(c2ncnc3c(F)c(-c4cc(O)cc5ccccc45)c(Cl)cc23)CC1CO (centres unmarked) [Compound 256, 1-(4-(6-chloro-8-fluoro-7-(3-hydroxynaphthalen-1-yl)quinazolin-4-yl)-2-(hydroxymethyl)piperazin-1-yl)prop-2-en-1-one]	+++ (+++ indicates binding activity greater than 50% and up to 75%)
C=CC(=O)N1CCN(c2ncnc3cc(-c4cc(C)cc5[nH]ncc45)c(Cl)cc23)CC1 [Compound 262, 1-(4-(6-chloro-7-(6-methyl-1H-indazol-4-yl)quinazolin-4-yl)piperazin-1-yl)prop-2-en-1-one]	+ (+ indicates binding activity from 5% to 25%)
C=CC(=O)N1CCN(c2ncnc3cc(-c4cc(Cl)cc5[nH]ncc45)c(Cl)cc23)CC1 [Compound 266, 1-(4-(6-chloro-7-(6-chloro-1H-indazol-4-yl)quinazolin-4-yl)piperazin-1-yl)prop-2-en-1-one]	+++ (+++ indicates binding activity greater than 50% and up to 75%)
C=CC(=O)N1CCN(c2ncnc3c(OC)c(-c4c(C)ccc5[nH]ncc45)c(Cl)cc23)CC1 [Compound 302, 1-(4-(6-chloro-8-methoxy-7-(5-methyl-1H-indazol-4-yl)quinazolin-4-yl)piperazin-1-yl)prop-2-en-1-one]	+++ (+++ indicates binding activity greater than 50% and up to 75%)
C=CC(=O)N1CCN(c2cc(=O)[nH]c3cc(-c4c(C)ccc5[nH]ncc45)c(Cl)cc23)CC1 [Compound 326, 4-(4-acryloylpiperazin-1-yl)-6-chloro-7-(5-methyl-1H-indazol-4-yl)quinolin-2(1H)-one]	+ (+ indicates binding activity from 5% to 25%)
C/C=C/C(=O)N1CCN(c2ncnc3c(F)c(-c4cc(O)cc5ccccc45)c(Cl)cc23)CC1 [Compound 328, (E)-1-(4-(6-chloro-8-fluoro-7-(3-hydroxynaphthalen-1-yl)quinazolin-4-yl)piperazin-1-yl)but-2-en-1-one]	+ (+ indicates binding activity from 5% to 25%)
C=CC(=O)N1CCN(c2ncnc3cc(-c4c(O)cccc4F)c(Cl)c(F)c23)CC1 [Compound 343, 1-(4-(6-chloro-5-fluoro-7-(2-fluoro-6-hydroxyphenyl)quinazolin-4-yl)piperazin-1-yl)prop-2-en-1-one]	+++ (+++ indicates binding activity greater than 50% and up to 75%)
C=CC(=O)N1CCN(c2nc(N(C)C)nc3c(F)c(-c4cc(O)cc5ccccc45)c(Cl)cc23)CC1 [Compound 344, 1-(4-(6-chloro-2-(dimethylamino)-8-fluoro-7-(3-hydroxynaphthalen-1-yl)quinazolin-4-yl)piperazin-1-yl)prop-2-en-1-one]	+++ (+++ indicates binding activity greater than 50% and up to 75%)
C=CC(=O)N1CCN(c2nc(NC)nc3c(F)c(-c4cc(O)cc5ccccc45)c(Cl)cc23)CC1 [Compound 345, 1-(4-(6-chloro-8-fluoro-7-(3-hydroxynaphthalen-1-yl)-2-(methylamino)quinazolin-4-yl)piperazin-1-yl)prop-2-en-1-one]	++++ (++++ indicates binding activity greater than 75%)
C=CC(=O)N1CCN(c2ncnc3c(F)c(-c4cc(O)cc5ccccc45)c(Cl)cc23)CC1CN(C)C (centres unmarked) [Compound 346, 1-(4-(6-chloro-8-fluoro-7-(3-hydroxynaphthalen-1-yl)quinazolin-4-yl)-2-((dimethylamino)meth-yl)piperazin-1-yl)prop-2-en-1-one]	++++ (++++ indicates binding activity greater than 75%)
C=CC(=O)N1CCN(c2nc(NC3CCOC3)nc3c(F)c(-c4c(C)ccc5[nH]ncc45)c(Cl)cc23)CC1 (centres unmarked) [Compound 347, 1-(4-(6-chloro-8-fluoro-7-(5-methyl-1H-indazol-4-yl)-2-(tetrahydrofuran-3-ylamino)quinazolin-4-yl)piperazin-1-yl)prop-2-en-1-one]	++++ (++++ indicates binding activity greater than 75%)
C=CC(=O)N1CCN(c2ncnc3c(OC)c(-c4cc(O)cc5ccccc45)c(Cl)cc23)CC1 [Compound 348, 1-(4-(6-chloro-7-(3-hydroxynaphthalen-1-yl)-8-methoxyquinazolin-4-yl)piperazin-1-yl)prop-2-en-1-one]	++++ (++++ indicates binding activity greater than 75%)
C=CC(=O)N1CCN(c2nc(NC3CCN(CC(F)(F)F)C3)nc3c(F)c(-c4cc(O)cc5ccccc45)c(Cl)cc23)CC1 (centres unmarked) [Compound 349, 1-(4-(6-chloro-8-fluoro-7-(3-hydroxynaphthalen-1-yl)-2-(1-(2,2,2-trifluoroethyl)pyrrolidin-3-ylamino)quinazolin-4-yl)piperazin-1-yl)prop-2-en-1-one]	+++ (+++ indicates binding activity greater than 50% and up to 75%)

Same assay, conditions: binding measured at 2 h (compounds 48-246)

SMILES	Binding %
C=CC(=O)N1CCN(c2nc(C)nc3cc(Cl)c(-c4ccc(Cl)cc4)cc23)CC1 [Compound 50, 1-(4-(7-chloro-6-(4-chlorophenyl)-2-methylquinazolin-4-yl)piperazin-1-yl)prop-2-en-1-one]	+ (+ indicates binding activity from 5% to 25%)
C=CC(=O)N1CCN(c2ncnc3cc(N4CCCCC4)c(Cl)cc23)CC1 [Compound 80, 1-(4-(6-chloro-7-(piperidin-1-yl)quinazolin-4-yl)piperazin-1-yl)prop-2-en-1-one]	+ (+ indicates binding activity from 5% to 25%)
C=CC(=O)N1CCN(c2ncnc3cc(-c4ccc(F)cc4C(F)(F)F)c(Cl)cc23)CC1 [Compound 119, 1-(4-(6-chloro-7-(4-fluoro-2-(trifluoromethyl)phe-nyl)quinazolin-4-yl)piperazin-1-yl)prop-2-en-1-one]	+++ (+++ indicates binding activity greater than 50% and up to 75%)
C=CC(=O)N1CCN(c2ncnc3cc(-c4c(O)cccc4F)c(Cl)cc23)CC1 [Compound 138, 1-(4-(6-chloro-7-(2-fluoro-6-hydroxyphenyl)quinazolin-4-yl)piperazin-1-yl)prop-2-en-1-one]	++++ (++++ indicates binding activity greater than 75%)
C=CC(=O)N1CCC(n2c(=O)cnc3cc(-c4ccc(F)cc4F)c(Cl)cc32)CC1 [Compound 151, 1-(1-acryloylpiperidin-4-yl)-7-chloro-6-(2,4-difluorophenyl)quinoxalin-2(1H)-one]	+ (+ indicates binding activity from 5% to 25%)
C=CC(=O)N1CCN(c2cnnc3cc(-c4ccccc4F)c(Cl)cc23)CC1 [Compound 159, 1-(4-(6-chloro-7-(2-fluorophenyl)cinnolin-4-yl)piperazin-1-yl)prop-2-en-1-one]	+++ (+++ indicates binding activity greater than 50% and up to 75%)
C=CC(=O)N1CCN(c2c(C(N)=O)cnc3cc(-c4ccccc4F)c(Cl)cc23)CC1 [Compound 189, 4-(4-acryloylpiperazin-1-yl)-6-chloro-7-(2-fluorophenyl)quinoline-3-carboxamide]	++ (++ indicates binding activity greater than 25% and up to 50%)
C=CC(=O)N1CCN(c2ncnc3cc(-c4cc(O)c(F)cc4F)c(Cl)cc23)CC1 [Compound 206, 1-(4-(6-chloro-7-(2,4-difluoro-5-hydroxyphenyl)quinazolin-4-yl)piperazin-1-yl)prop-2-en-1-one]	+++ (+++ indicates binding activity greater than 50% and up to 75%)
C#Cc1cnc2cc(-c3ccccc3F)c(Cl)cc2c1N1CCN(C(=O)C=C)CC1 [Compound 215, 1-(4-(6-chloro-3-ethynyl-7-(2-fluorophenyl)quinolin-4-yl)piperazin-1-yl)prop-2-en-1-one]	++ (++ indicates binding activity greater than 25% and up to 50%)

Same assay, conditions: binding measured at 24 h (compounds 1-47)

SMILES	Binding %
C=CC(=O)N1CCN(c2nccc3cc(Cl)c(-c4ccc(Cl)cc4O)cc23)CC1 [Compound 38, 1-(4-(6-chloro-7-(4-chloro-2-hydroxyphenyl)isoquinolin-1-yl)piperazin-1-yl)prop-2-en-1-one]	++ (++ indicates binding activity greater than 25% and up to 50%)
C=CC(=O)N1CCN(c2nc(N)nc3cc(Cl)c(-c4ccc(Cl)cc4)cc23)CC1 [Compound 39, 1-(4-(2-amino-7-chloro-6-(4-chlorophenyl)quinazolin-4-yl)piperazin-1-yl)prop-2-en-1-one]	+ (+ indicates binding activity from 5% to 25%)
C=CC(=O)N1CCN(c2ncnc3cc(Cl)c(-c4ccc(Br)cc4)cc23)CC1 [Compound 40, 1-(4-(6-(4-bromophenyl)-7-chloroquinazolin-4-yl)piperazin-1-yl)prop-2-en-1-one]	+++ (+++ indicates binding activity greater than 50% and up to 75%)

Source: US10927125B2, “Substituted cinnolines as inhibitors of KRAS G12C” (Araxes Pharma LLC, priority 2013, dated 2021)
